In patent USRE48335E1, “Polymyxin derivatives as antimicrobial compounds” (priority 2014, dated 2020):
≈ marks a conversion by molar mass, not a printed value. Positions of bridges follow the written chain, without caps; N, C: chain ends. Non-standard residues stand in square brackets, D forms with d. Residues, ends and D or L forms follow the SMILES beside them. *: point of attachment. Heptanoyl(6-Me) = CC(C)CCCCC(=O)*; Nonanoyl = CCCCCCCCC(=O)*; X1 = CC[C@H](C)CCCCC(=O)*; Octanoyl = CCCCCCCC(=O)*; Dab = NCC[C@H](N)C(=O)O; Dap = NC[C@H](N)C(=O)O

Columns and labels:
A. baumannii ATCC 19606 = assay: In vivo efficacy in mouse blood infection model (neutropenic Swiss mice); details: compound, free base 4 mg/kg intravenously 2 h after inoculation, blood at 4 h
In short: (§1)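 Activity expressed as Δlog10 CFU/mL blood, treated minus saline control, 4 h after a single 4 mg/kg (free base) i.v. dose given 2 h post-infection. Bloodstream infection from i.v. early log-phase inoculum in Swiss mice made neutropenic by i.p. cyclophosphamide on days −4 (150 mg/kg) and −1 (100 mg/kg).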

P. aeruginosa ATCC 27853 = assay: as above; details: compound, free base 4 mg/kg intravenously 2 h after inoculation, blood at 4 h
In short: as §1

[1] = test system: K. pneumoniae FADDI-KP032; assay: as above; details: compound, free base 4 mg/kg intravenously 2 h after inoculation, blood at 4 h
In short: as §1

Acinetobacter baumannii = test system: Acinetobacter baumannii
In short: (§2)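 Lipopeptide TFA salts are serially diluted in cation-adjusted Mueller-Hinton broth and inoculated per the CLSI M100-S18 broth microdilution method. The MIC is then recorded, with polymyxin B sulphate included as a control.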

Pseudomonas aeruginosa = test system: Pseudomonas aeruginosa
In short: as §2

Klebsiella pneumoniae = test system: Klebsiella pneumoniae
In short: as §2

Enterobacter cloacae = test system: Enterobacter cloacae
In short: as §2

SMILES | Δ log (Treated-Control at 4 h) (A. baumannii ATCC 19606) | Δ log (Treated-Control at 4 h) (P. aeruginosa ATCC 27853) | Δ log (Treated-Control at 4 h) [1] | MIC (Acinetobacter baumannii) | Minimum inhibitory concentration, Ab A ATCC 17978 (Acinetobacter baumannii) | Minimum inhibitory concentration, Ab ATCC 19606 (Acinetobacter baumannii) | Minimum inhibitory concentration, Ab FADDI-AB034 (Acinetobacter baumannii) | MIC (Pseudomonas aeruginosa) | Minimum inhibitory concentration, Pa ATCC 27853 (Pseudomonas aeruginosa) | Minimum inhibitory concentration, Pa FADDI-PA022 (Pseudomonas aeruginosa) | Minimum inhibitory concentration, Pa FADDI-PA025 (Pseudomonas aeruginosa) | MIC (Klebsiella pneumoniae) | Minimum inhibitory concentration, Ec FADDI-EC001 (Enterobacter cloacae) | Minimum inhibitory concentration, Ec FADDI-EC003 (Enterobacter cloacae) | Minimum inhibitory concentration, Ec FADDI-EC006 (Enterobacter cloacae) | further results
CCCCCCCC(=O)N[C@@H](CCN)C(=O)N[C@H](C(=O)N[C@@H](CCN)C(=O)N[C@H]1CCNC(=O)[C@H]([C@@H](C)O)NC(=O)[C@H](CCN)NC(=O)[C@H](CCN)NC(=O)[C@H](C(C)C)NC(=O)[C@@H](CC(C)C)NC(=O)[C@H](CCN)NC1=O)[C@@H](C)O [Compound 23] (Octanoyl-[Dab]T[Dab][Dab][Dab][dL]V[Dab][Dab]T; lactam 4-C) | −2.82 log10 CFU/mL | −2.48 log10 CFU/mL | −3.88 log10 CFU/mL | 0.5 µg/mL (≈ 0.438 µM) | 0.5 µg/mL (≈ 0.438 µM) | 0.5 µg/mL (≈ 0.438 µM) | 0.25 µg/mL (≈ 0.219 µM) | 1 µg/mL (≈ 0.876 µM) | 1 µg/mL (≈ 0.876 µM) | 1 µg/mL (≈ 0.876 µM) | 4 µg/mL (≈ 3.5 µM) | <0.125 µg/mL | <0.125 µg/mL | <0.125 µg/mL | 0.25 µg/mL (≈ 0.219 µM) | 
CC[C@H](C)CCCCC(=O)N[C@@H](CCN)C(=O)N[C@H](C(=O)N[C@@H](CCN)C(=O)N[C@H]1CCNC(=O)[C@H]([C@@H](C)O)NC(=O)[C@H](CCN)NC(=O)[C@H](CCN)NC(=O)[C@H]([C@@H](C)O)NC(=O)[C@@H](CC(C)C)NC(=O)[C@H](CCN)NC1=O)[C@@H](C)O [Compound 152, polymyxin M1] (X1-[Dab]T[Dab][Dab][Dab][dL]T[Dab][Dab]T; lactam 4-C) | −1.61 log10 CFU/mL | −3.24 log10 CFU/mL | −3.86 log10 CFU/mL | 1 µg/mL (≈ 0.864 µM) |  |  |  | 1 µg/mL (≈ 0.864 µM) |  |  |  | 0.5 µg/mL (≈ 0.432 µM) |  |  |  | Minimum inhibitory concentration (MIC), Ab ATCC 17978 (Acinetobacter baumannii): 1 µg/mL (≈ 0.864 µM); Minimum inhibitory concentration (MIC), Ab ATCC 19606 (Acinetobacter baumannii): 1 µg/mL (≈ 0.864 µM); Minimum inhibitory concentration (MIC), Ab FADDI-AB034 (Acinetobacter baumannii): 1 µg/mL (≈ 0.864 µM); Minimum inhibitory concentration (MIC), Pa ATCC 27853 (Pseudomonas aeruginosa): 1 µg/mL (≈ 0.864 µM); Minimum inhibitory concentration (MIC), Pa FADDI-PA022 (Pseudomonas aeruginosa): 1 µg/mL (≈ 0.864 µM); Minimum inhibitory concentration (MIC), Pa FADDI-PA025 (Pseudomonas aeruginosa): 32 µg/mL (≈ 27.6 µM); Minimum inhibitory concentration (MIC), Ec FADDI-EC001 (Enterobacter cloacae): 0.5 µg/mL (≈ 0.432 µM); Minimum inhibitory concentration (MIC), Ec FADDI-EC003 (Enterobacter cloacae): 0.5 µg/mL (≈ 0.432 µM); Minimum inhibitory concentration (MIC), Ec FADDI-EC006 (Enterobacter cloacae): 0.25 µg/mL (≈ 0.216 µM)
CCCCCCCC(=O)N[C@@H](CCN)C(=O)N[C@H](C(=O)N[C@@H](CN)C(=O)N[C@H]1CCNC(=O)[C@H]([C@@H](C)O)NC(=O)[C@H](CCN)NC(=O)[C@H](CCN)NC(=O)[C@H]([C@@H](C)O)NC(=O)[C@@H](CC(C)C)NC(=O)[C@H](CCN)NC1=O)[C@@H](C)O [Compound 33] (Octanoyl-[Dab]T[Dap][Dab][Dab][dL]T[Dab][Dab]T; lactam 4-C) | −1.40 log10 CFU/mL | −1.55 log10 CFU/mL | −2.80 log10 CFU/mL | 0.5 µg/mL (≈ 0.443 µM) | 0.25 µg/mL (≈ 0.221 µM) | 0.5 µg/mL (≈ 0.443 µM) | 0.25 µg/mL (≈ 0.221 µM) | 0.5 µg/mL (≈ 0.443 µM) | 0.5 µg/mL (≈ 0.443 µM) | 0.5 µg/mL (≈ 0.443 µM) | 8 µg/mL (≈ 7.08 µM) | <0.125 µg/mL | <0.125 µg/mL | <0.125 µg/mL | 1 µg/mL (≈ 0.885 µM) | 
CCCCCCCC(=O)N[C@@H](CCN)C(=O)N[C@H](C(=O)N[C@@H](CCN)C(=O)N[C@H]1CCNC(=O)[C@H]([C@@H](C)O)NC(=O)[C@H](CCN)NC(=O)[C@H](CCN)NC(=O)[C@H]([C@@H](C)O)NC(=O)[C@@H](CC(C)C)NC(=O)[C@H](CCN)NC1=O)[C@@H](C)O [Compound 20] (Octanoyl-[Dab]T[Dab][Dab][Dab][dL]T[Dab][Dab]T; lactam 4-C) | −1.86 log10 CFU/mL | −2.13 log10 CFU/mL | −3.50 log10 CFU/mL | 4 µg/mL (≈ 3.5 µM) | 4 µg/mL (≈ 3.5 µM) | 4 µg/mL (≈ 3.5 µM) | 2 µg/mL (≈ 1.75 µM) | 0.5 µg/mL (≈ 0.437 µM) | 0.5 µg/mL (≈ 0.437 µM) | 0.5 µg/mL (≈ 0.437 µM) | >32 µg/mL | 0.25 µg/mL (≈ 0.219 µM) | <0.125 µg/mL | 0.5 µg/mL (≈ 0.437 µM) | <0.125 µg/mL | 
CC(C)CCCCC(=O)N[C@@H](CCN)C(=O)N[C@H](C(=O)N[C@H](CO)C(=O)N[C@H]1CCNC(=O)[C@H]([C@@H](C)O)NC(=O)[C@H](CCN)NC(=O)[C@H](CCN)NC(=O)[C@H]([C@@H](C)O)NC(=O)[C@@H](CC(C)C)NC(=O)[C@H](CCN)NC1=O)[C@@H](C)O [Compound 151, polymyxin D2] ({Heptanoyl(6-Me)}-[Dab]T[dS][Dab][Dab][dL]T[Dab][Dab]T; lactam 4-C) | −1.59 log10 CFU/mL | −0.40 log10 CFU/mL | −4.71 log10 CFU/mL | 0.5 µg/mL (≈ 0.442 µM) |  |  |  | 4 µg/mL (≈ 3.54 µM) |  |  |  | 0.5 µg/mL (≈ 0.442 µM) |  |  |  | Minimum inhibitory concentration (MIC), Ab ATCC 17978 (Acinetobacter baumannii): 0.25 µg/mL (≈ 0.221 µM); Minimum inhibitory concentration (MIC), Ab ATCC 19606 (Acinetobacter baumannii): 0.5 µg/mL (≈ 0.442 µM); Minimum inhibitory concentration (MIC), Ab FADDI-AB034 (Acinetobacter baumannii): 0.5 µg/mL (≈ 0.442 µM); Minimum inhibitory concentration (MIC), Pa ATCC 27853 (Pseudomonas aeruginosa): 4 µg/mL (≈ 3.54 µM); Minimum inhibitory concentration (MIC), Pa FADDI-PA022 (Pseudomonas aeruginosa): 4 µg/mL (≈ 3.54 µM); Minimum inhibitory concentration (MIC), Pa FADDI-PA025 (Pseudomonas aeruginosa): >32 µg/mL; Minimum inhibitory concentration (MIC), Ec FADDI-EC001 (Enterobacter cloacae): 0.25 µg/mL (≈ 0.221 µM); Minimum inhibitory concentration (MIC), Ec FADDI-EC003 (Enterobacter cloacae): 0.25 µg/mL (≈ 0.221 µM); Minimum inhibitory concentration (MIC), Ec FADDI-EC006 (Enterobacter cloacae): 0.25 µg/mL (≈ 0.221 µM)
CCCCCCCC(=O)N[C@@H](CCN)C(=O)N[C@H](C(=O)N[C@@H](CCN)C(=O)N[C@H]1CCNC(=O)[C@H]([C@@H](C)O)NC(=O)[C@H](CCN)NC(=O)[C@H](CCN)NC(=O)[C@H]([C@@H](C)O)NC(=O)[C@@H](Cc2ccccc2)NC(=O)[C@H](CCN)NC1=O)[C@@H](C)O [Compound 22] (Octanoyl-[Dab]T[Dab][Dab][Dab][dF]T[Dab][Dab]T; lactam 4-C) | −1.50 log10 CFU/mL | −3.10 log10 CFU/mL | −3.11 log10 CFU/mL | 1 µg/mL (≈ 0.849 µM) | 1 µg/mL (≈ 0.849 µM) | 1 µg/mL (≈ 0.849 µM) | 0.5 µg/mL (≈ 0.425 µM) | 1 µg/mL (≈ 0.849 µM) | 1 µg/mL (≈ 0.849 µM) | 1 µg/mL (≈ 0.849 µM) | 16 µg/mL (≈ 13.6 µM) | 0.5 µg/mL (≈ 0.425 µM) | <0.125 µg/mL | <0.125 µg/mL | 0.25 µg/mL (≈ 0.212 µM) | 
CCCCCCCCC(=O)N[C@@H](CCN)C(=O)N[C@H](C(=O)N[C@@H](CN)C(=O)N[C@H]1CCNC(=O)[C@H]([C@@H](C)O)NC(=O)[C@H](CCN)NC(=O)[C@H](CCN)NC(=O)[C@H]([C@@H](C)O)NC(=O)[C@@H](CC(C)C)NC(=O)[C@H](CCN)NC1=O)[C@@H](C)O [Compound 58] (Nonanoyl-[Dab]T[Dap][Dab][Dab][dL]T[Dab][Dab]T; lactam 4-C) | −2.15 log10 CFU/mL | −3.00 log10 CFU/mL | −3.21 log10 CFU/mL | 0.25 µg/mL (≈ 0.219 µM) | 0.5 µg/mL (≈ 0.437 µM) | 0.25 µg/mL (≈ 0.219 µM) | 1 µg/mL (≈ 0.875 µM) | 0.5 µg/mL (≈ 0.437 µM) | 0.5 µg/mL (≈ 0.437 µM) | 2 µg/mL (≈ 1.75 µM) | 2 µg/mL (≈ 1.75 µM) | 0.25 µg/mL (≈ 0.219 µM) | 0.25 µg/mL (≈ 0.219 µM) | 0.25 µg/mL (≈ 0.219 µM) | 0.5 µg/mL (≈ 0.437 µM) | 
